Data on 4 molecules can be found in US11369592B2 (priority 2020, dated 2022).

Data set [1] concerns Influenza A H1N1/California/07/2009. Description: CPE inhibition assay (visual and neutral red). Particulars: for EC50: Influenza A virus, H1N1; for EC50 (cell spans EC50, CC50, SI): MA-104 or MDCK, Visual or Neutral Red, concentration range 0.3-300.
Data set [2] relates to Influenza H5 N1/Duck/MN/1525/81. Description: organism not typed.
Data set [3] relates to Influenza B/Florida/4/2006. Description: CPE inhibition assay (visual and neutral red). Particulars: for EC50: Influenza B virus; for EC50 (cell spans EC50, CC50, SI): MA-104 or MDCK, Visual or Neutral Red, concentration range 0.3-300.
Data set [4] relates to Parainfluenza virus 3/14702. Description: CPE inhibition assay (visual and neutral red). Particulars: for EC50 (cell spans EC50, CC50, SI): MA-104 or MDCK, Visual or Neutral Red, concentration range 0.3-300.
The test system of data set [5] is Influenza B/Brisbane/60/2008. Description: CPE inhibition assay (visual and neutral red). Particulars: for EC50: Influenza B virus; for EC50 (cell spans EC50, CC50, SI): MA-104 or MDCK, Visual or Neutral Red, concentration range 0.3-300.
The test system of a further data set is Human rhinovirus 14/1059. Description: CPE inhibition assay (visual and neutral red). Conditions: for EC50: Rhinovirus B; for EC50 (cell spans EC50, CC50, SI): MA-104 or MDCK, Visual or Neutral Red, concentration range 0.3-300.
The conditions of data set [6]: cited from earlier work.
Data set [7] concerns Influenza H5 N1/Duck/MN/1525/81.
The conditions of data set [8]: mice; 50 mg/kg BID dose; cited from earlier work.
Data set [9] has as its system MucilAir™-Pool human airway epithelium infected with SARS-CoV-2. Description: Tissue integrity (TEER) upon SARS-CoV-2 infection in MucilAir-Pool, Phase 2. It is filed as cell-based.
Data set [10] has as its system SARS-CoV-2. Description: SARS-CoV-2 apical infectious titre in MucilAir-Pool (TCID50). Conditions: for reduction of SARS-CoV-2 titre at apical side: 48 hours.
Another data set has as its system endogenous esterases. Conditions: Kang (1996) Glycobiology; cited from earlier work.
The test system of data set [11] is MucilAir™-Pool human airway epithelium. Description: Cilia beating frequency (CBF) on MucilAir-Pool, Phase 1. Particulars: Day 3, room temperature. It is filed as cell-based. How it is done: Effect on cilia included cilia motion: Cilia Beating Frequency (CBF).
(§1) Repeated basolateral exposure once a day of test compounds on MucilAir™-Pool. Transepithelial electrical resistance (TEER) was assessed each day. LDH release indicating cytotoxicity, was measured at Day 2 and 3 (24 hours accumulation). Cilia beating frequency (CBF) was measured once, at the end of the experiment, at Day 3. (FIG. 7)
(§2) Number of concentrations: 3 doses • Celgosivir=100, 30 and […] on basolateral side in 0.2% DMSO and 2% fetal bovine serum
Cilia beating frequency was monitored using a MAKO G030B camera connected to a ZEISS Primovert microscope with a 5× objective.
CBF measurement is based on the capture of 256 frames at high frequency rate (125 frames per second) at room temperature via the specific package of software. The frequency is expressed as Hertz and was calculated using an Epithelix software.

Data set [12] has the same test system. Description: Lactate dehydrogenase (LDH) cytotoxicity assay on MucilAir-Pool, Phase 1. In kind it is cell-based. How it is done:
(§3) The testing strategies includes basolateral exposure of test compounds on MucilAir™-Pool.
(§4) Global markers of Toxicity included (1) Tissue integrity monitoring: Trans-epithelial electrical resistance (TEER) measurement and (2) Cytotoxicity: Lactate dehydrogenase (LDH) assay.
Repeated basolateral exposure once a day of test compounds on MucilAir™-Pool. Transepithelial electrical resistance (TEER) was assessed each day. LDH release indicating cytotoxicity, was measured at Day 2 and 3 (24 hours accumulation). Cilia beating frequency (CBF) was measured once, at the end of the experiment, at Day 3. (FIG. 7) […]
Lactate dehydrogenase is a stable cytoplasmic enzyme that is rapidly released into the culture medium upon rupture of the plasma membrane. 100 μL basolateral medium collected at each time-point was incubated with the reaction mixture of the Cytotoxicity Detection Kit^PLUS, following manufacturer's instructions (Sigma, Roche, 11644793001). The amount of the released LDH was then quantified by measuring the absorbance of each sample at 490 nm with a microplate reader. To determine the percentage of cytotoxicity, the following equation was used (A=absorbance values): Cytotoxicity (%)=(A (exp value)−A (low control)/A (high control)−A (low control))*100
The high control value was obtained by 10% Triton X-100 treatment 24 hours prior to the assay. Triton X-100 causes a massive LDH release and corresponds to 100% cytotoxicity.

For data set [13] the following is noted: over the tolerated dose range; cited from earlier work.
In data set [14] the test system is MucilAir™-Pool human airway epithelium. Description: Tissue integrity (TEER) of uninfected MucilAir-Pool, Phase 1. Conditions: all three tested concentrations, up to three days; threshold 100 Ω·cm^2. In kind it is cell-based. How it is done:
as §3, §4, §1, §2
TEER is a dynamic parameter that reflects the state of epithelia and is typically between 200 to 600 Ω·cm^2. An increase of the TEER value reflects a blockage of the ion channel activities. A notable decrease of the TEER values (but >100 Ω·cm^2) could be observed in certain cases, reflecting an activation of the ion channels. Disruption of cellular junction or holes in the epithelia result in TEER values below 100 Ω·cm^2. […]
After addition of 200 μl of 0.9% saline solution to the apical compartment of MucilAir™ cultures, resistance was measured with an EVOMX volt-ohm-meter (World Precision Instruments UK, Stevenage) for each condition. […]

In data set [15] the test system is SARS-CoV-2. Description: SARS-CoV-2 apical replication in MucilAir-Pool (genome copies ORF1b-nsp14, Taqman RT-PCR). In kind it is cell-based. (Quantitative PCR measures a nucleic acid by following its amplification.)
Data set [16] in a line: Pharmacokinetic simulations using CELADEN castanospermine parameters. Details: species or system human. Particulars: linear extrapolation. The protocol:
It is known that a steady state minimum castanospermine concentration of 400 nanograms/ml is associated with a 50 mg/kg BID dose in mice and that the antiviral effect of celgosivir in vivo seems to be correlated with the minimum steady state concentration of castanospermine. […] International Publication No. WO 2014/143907 discloses pharmacokinetic parameters for castanospermine for the CELADEN study. […] Extrapolating linearly, therefore, the minimum protective dose (achieving 400 nanograms/ml steady state minimum) is approximately 40 mg every 6h, 75 mg every 8 h and 225 mg every 12 h. Further, WO 2014/143907 discloses that the CELADEN study regimen produce a steady state maximum castanospermine concentration of 5100 nanograms/ml. […] The FDA has published generic scaling factors to adjust mg/kg dosing in animals to mg/kg dosing in humans. Generically for mice, that scaling factor is 12. Therefore, 50 mg/kg BID is equivalent to a dose of 4.2 mg/kg BID in humans, which for a 60 kg human is equivalent to 250 mg. The same dose administered three or four times daily is equivalent to 167 mg and 125 mg and 2.8 and 2.1 mg/kg respectively. In a 60 kg human, the maximum single dose is 6.7 mg/kg, and the maximum daily dose is 10 mg/kg.

Like-named read-outs stand apart in the source and are kept apart here.

Broadly, the EC50 is the concentration at which the effect is half-maximal. Read a low EC50 as higher potency in that assay. `NC(=O)c1ncn([C@@H]2O[C@H](CO)[C@@H](O)[C@H]2O)n1` [Ribavirin, reference compound]: the EC50 (in data set [1]; in data set [2]; in data set [3]; in data set [4]; in data set [5]; in the data set on Human rhinovirus 14/1059) was below 10 µM each time.

Take `O[C@H]1[C@H](O)[C@@H](O)CN2CC[C@H](O)[C@H]12` [castanospermine, (1S,6S,7R,8aR)-Tetrahydroxyoctahydroindolizine]: the “steady state maximum castanospermine concentration” value in [6] (CELADEN study regimen) is 5100 nanograms/ml. In addition, the EC50 (in [1]; in [2]; in [3]; in data set [4]; in [5]; in the data set with Human rhinovirus 14/1059) was above 300 µM in each case. Also, the “EC50 (cell spans EC50, CC50, SI)” value is on record as “Not active” in [1]; “Not active” in data set [7] (MA-104 or MDCK, Visual or Neutral Red, concentration range 0.3-300); “Not active” in [3]; “Not active” in data set [4]; “Not active” in data set [5]; “Not active” in the data set with Human rhinovirus 14/1059. Also, the “steady state minimum castanospermine concentration” value in data set [8] was 400 nanograms/ml.

Consider `CCCC(=O)O[C@H]1CN2CC[C@H](O)[C@@H]2[C@@H](O)[C@@H]1O` [Celgosivir, 6-O-butanoyl castanospermine], for which the adverse event profile entry in data set [6] (CELADEN study dose) is listed as “higher incidence of GI effects, but not increased severity”. Moreover, the “maximum daily dose as a total dose” value in [6] (human, in theory) is recorded as 600 mg. Further, the “maximum dose as a single dose” value in data set [6] (human, in theory) was 400 mg. Further, the “effect against virus-induced cytopathology” value was “diminished extent” in data set [9] (3 microM); “protective effective” in data set [9] (30 and 100 microM). Also, in data set [9] (30 and 100 μM, 48 and 72 hours post-inoculation), the “SARS-CoV-2 induced decrease of TEER” value is “prevented”. For the same molecule, the concentration for a half-maximal effect (EC50) (in data set [1]; in [2]; in data set [3]; in data set [4]; in data set [5]; in the data set on Human rhinovirus 14/1059) was above 300 µM each time. The “EC50 (cell spans EC50, CC50, SI)” value (in data set [1]; in [7]; in data set [3]; in [4]; in [5]; with Human rhinovirus 14/1059) was “Not active” in each case. The “reduction of SARS-CoV-2 titre at apical side” value with SARS-CoV-2 [10] (30 mM (so in the source)) came out at 1 log10; in the data set on SARS-CoV-2 [10] (100 mM (so in the source)), 1.9 log10. Besides, the “yield of viral progeny” value in the data set on SARS-CoV-2 [10] (3 microM) is “diminished extent”; with SARS-CoV-2 [10] (30 and 100 microM), “decreased”. Also, in the data set with SARS-CoV-2 [10] (72 hours, concentration not given), the “reducing effect on SARS-CoV-2 titre” value was determined as 1.1 log. Moreover, the conversion to castanospermine result with endogenous esterases was “rapidly converted by endogenous esterases to castanospermine”. In addition, the “crossing of cell membranes” value in the data set with endogenous esterases was “readily crosses cell membranes”. In addition, in [11], the “cilia motion (cilia beating frequency)” value was “did not modify significantly”. Also, in data set [12] (Day 2 and 3, threshold limit 5% cytotoxicity), the “cytotoxicity (LDH release)” value is “No cytotoxicity”. Besides, the “evidence of cytotoxicity (TEER, cytotoxicity and CBF values versus controls)” value in [12] (concentrations at or below 100 microM) is “did not exhibit evidence of cytoxicity”. In addition, the pharmacokinetics versus dose result in data set [13] is on record as “linear with dose”. In addition, the “Epithelial barrier function (TEER)” value in data set [14] is recorded as > 100 Ω·cm^2. In addition, the “reduction of viruses (genome copies)” value worked out at 1.2 log10 in the data set with SARS-CoV-2 [15] (30 mM (so in the source), 48 hours); 0.9 log10 in the data set on SARS-CoV-2 [15] (30 mM (so in the source), later time point (72 hours)); 1.4 log10 in the data set with SARS-CoV-2 [15] (100 mM (so in the source), 48 hours); 1 log10 in the data set with SARS-CoV-2 [15] (100 mM (so in the source), later time point (72 hours)). The “inhibition of SARS-CoV-2 replication, dose relation” value with SARS-CoV-2 [15] (3 doses, basolateral once a day for 3 days) is on record as “dose dependent inhibition”. In addition, the SARS-CoV-2 replication entry in the data set with SARS-CoV-2 [15] (3 microM) is given as “diminished extent”; in the data set with SARS-CoV-2 [15] (30 and 100 microM), “decreased”. Also, the “minimum protective dose (achieving 400 nanograms/ml steady state minimum)” value in data set [16] (every 6h) is “approximately 40 mg”; in data set [16] (every 8 h), around 75 mg; in data set [16] (every 12 h) it was around 225 mg.

Regarding Triton X-100 [reference compound], the “induced toxicity (LDH release)” value in [12] (10% Triton X-100 solution, apical, 24 h, high control) is 100%.
